The target of this assay is T1, Estrogen receptor (Homo sapiens, UniProt P03372).
T1 sequence (P03372 whole entry): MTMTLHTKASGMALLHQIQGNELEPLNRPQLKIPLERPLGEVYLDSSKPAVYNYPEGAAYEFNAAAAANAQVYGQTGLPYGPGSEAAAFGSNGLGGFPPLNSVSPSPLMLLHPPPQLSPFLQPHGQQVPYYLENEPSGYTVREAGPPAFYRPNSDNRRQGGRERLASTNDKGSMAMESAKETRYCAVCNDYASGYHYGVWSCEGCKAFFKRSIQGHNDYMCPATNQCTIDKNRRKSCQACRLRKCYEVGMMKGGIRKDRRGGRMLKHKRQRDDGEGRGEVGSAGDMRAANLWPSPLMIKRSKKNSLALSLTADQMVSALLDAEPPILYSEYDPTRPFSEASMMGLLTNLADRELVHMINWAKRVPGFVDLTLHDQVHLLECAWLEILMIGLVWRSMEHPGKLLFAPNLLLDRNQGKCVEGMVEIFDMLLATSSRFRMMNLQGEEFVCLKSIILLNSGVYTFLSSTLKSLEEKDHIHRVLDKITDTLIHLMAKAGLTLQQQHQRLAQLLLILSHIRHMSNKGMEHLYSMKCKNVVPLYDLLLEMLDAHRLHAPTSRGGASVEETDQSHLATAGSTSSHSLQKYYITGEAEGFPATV
As to the kind of experiment: Binding constant for Estrogen receptor alpha.

One compound from ChEMBL document CHEMBL1135566, “Synthesis of a novel fluorescent probe for estrogen receptor” (Bioorg Med Chem Lett, 2002) can be followed below.

pKd: −log10 of the molar value.

By pKd is commonly meant the negative decadic logarithm of the Kd, by convention in mol/L.

In turn, `CC/C(=C(/CC)c1ccc(OCCCC(=O)NCc2ccc(-c3c4ccc(=O)cc-4oc4cc(O)ccc34)c(C(=O)O)c2)cc1)c1ccc(O)cc1` showed a pKd of 8.24.
